The values that follow come from patent US20250188164A1, “PHARMACEUTICAL COMPOSITION COMPRISING ANTI-CTLA4-ANTI-PD-1 BISPECIFIC ANTIBODY AND CHIAURANIB” (AKESO PHARMACEUTICALS, INC., priority 2022, published 2025).

This test deals with mixed culture of DC, PBMC and A375 cells. Nature of the test: Lymphocyte-tumor cell mixed reaction system, cytokine secretion by ELISA. In kind it is cell-based, human. As to conditions: A375 cells treated with 15 μM chiauranib for 48 h, BiAb004(hG1TM) 300 nM. The protocol:
Freshly isolated PBMCs (from healthy donors) were adhered to the wall overnight. Mononuclear cells were collected. GM-CSF (2000 U/mL, from peprotech, Cat. No. 300-03) and IL-4 (2000 U/mL from peprotech, Cat. No. 200-04) were added. Induction was performed after 3 days of culture. For the iDC group, half of the medium was exchanged, and GM-CSF (2000 U/mL) and IL4 (2000 U/mL) were added. For the mDC group, half of the medium was exchanged, and GM-CSF (2000 U/mL), IFN-γ (50 ng/mL, from Sino Biological, Cat. No. 11725-HNAS-100) and LPS (100 ng/mL, from SIGMA, Cat. No. L6529) were added. The cells were cultured in an incubator for 2 days and frozen for later use.
A375 cells (purchased from ATCC, agency: Zhongyuan Ltd., Cat. No. CRL-1619) were digested conventionally, collected by centrifugation, and plated on 10 cm dishes at 2×10^6 cells/dish. Chiauranib (from Chipscreen Biosciences, Lot No. 210604) was added to one of the dishes to a final concentration of 15 μM, and a blank control group was set. The mixture was incubated in an incubator at 37° C. and 5% CO2 for 48 h (medium: DMEM+10% FBS). […] The cells were counted and plated as per DC:PBMC=1:10 in 96-well flat-bottom plates. […] The amounts of secretion of IFN-γ (purchased from Dakewe, Cat. No. 1110202) and IL-2 (purchased from Dakewe, Cat. No. 1110202) were measured by an ELISA kit.
A general note: An ELISA detects its analyte on a solid surface through an enzyme-linked reagent.

Molecules are shown by their SMILES.

On to `COc1ccc2c(Oc3ccc4c(C(=O)Nc5ccccc5N)cccc4c3)ccnc2c1` [chiauranib, N-(2-aminophenyl)-6-(7-methoxyquinoline-4-oxy)-1-naphthamide], for which the “secretion of IFN-γ” value (supernatants day 3 and day 5, FIG. 17) is reported as “effectively promote”. Moreover, the “secretion of IL-2” value (supernatants day 3 and day 5, FIG. 18) is recorded as “effectively promote”.
